Measured values taken from PubChem BioAssay (NCI).
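A five-concentration, 48-hour dose response in 96-well plates underlies each endpoint, interpolated linearly between surrounding concentrations. TGI marks complete inhibition of growth.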

Columns and labels:
Assay in all cases: NCI tumour cell line growth inhibition, 48 h
[1] = system: EKVX NSCLC
[2] = system: SNB-19 CNS
[3] = system: UACC-257 melanoma
[4] = system: SN12C renal
[5] = system: U251 CNS
[6] = system: HCC-2998 colon
[7] = system: 786-0 renal
[8] = system: HS 578T breast
[9] = system: NCI-H23 lung
[10] = system: LOX IMVI melanoma
[11] = system: UO-31 renal
[12] = system: SF-539 CNS
[13] = system: NCI-H460 lung
[14] = system: SK-OV-3 ovarian
[15] = system: NCI-H226 lung
[16] = system: NCI-H522 lung
[17] = system: IGROV1 ovarian
[18] = system: OVCAR-4 ovarian
[19] = system: SF-268 CNS
[20] = system: HOP-92 NSCLC
[21] = system: HOP-62 NSCLC
[22] = system: K-562 leukemia
[23] = system: RPMI-8226 leukemia
[24] = system: HCT-116 colon
[25] = system: SR leukemia
[26] = system: TK-10 renal
[27] = system: CCRF-CEM leukemia
[28] = system: KM12 colon
[29] = system: CAKI-1 renal
[30] = system: HCT-15 colon
[31] = system: MOLT-4 leukemia
[32] = system: SNB-75 CNS
[33] = system: OVCAR-8 ovarian
[34] = system: HT29 colon
[35] = system: ACHN renal
[36] = system: RXF 393 renal
[37] = system: MCF7 breast
[38] = system: COLO 205 colon
[39] = system: MALME-3M melanoma
[40] = system: PC-3 prostate
[41] = system: MDA-MB-435
[42] = system: T-47D breast
[43] = system: NCI/ADR-RES ovarian
[44] = system: BT-549 breast
[45] = system: SF-295 CNS
[46] = system: SK-MEL-2 melanoma
[47] = system: OVCAR-3 ovarian
[48] = system: UACC-62 melanoma
[49] = system: A549 NSCLC
[50] = system: DU-145 prostate
[51] = system: OVCAR-5 ovarian
[52] = system: HL-60(TB) leukemia
[53] = system: M14 melanoma

Question: For `CSc1ccc(-c2cc(-c3nc4ccccc4[nH]3)nc3[nH]c(-c4nc5ccccc5[nH]4)cc(=O)c23)cc1`, which TGI [1] is on record?
Answer: The TGI was over 100 µM.

Question: And the TGI [2]?
Answer: The TGI was over 100 µM.

Question: What about the TGI [3] of the same compound?
Answer: Its TGI is over 100 µM.

Question: And the TGI [4]?
Answer: Its TGI is over 100 µM.

Question: And the TGI [5]?
Answer: Its TGI is over 100 µM.

Question: What about the TGI [6] of the same compound?
Answer: The TGI was 42.7 µM.

Question: What about the TGI [7] of the same compound?
Answer: The TGI was over 100 µM.

Question: What about the TGI [8] of the same compound?
Answer: The TGI was over 100 µM.

Question: What about the TGI [9] of the same compound?
Answer: Its TGI is over 100 µM.

Question: What about the TGI [10] of the same compound?
Answer: The TGI was over 100 µM.

Question: What about the TGI [11] of the same compound?
Answer: Its TGI is over 100 µM.

Question: And the TGI [12]?
Answer: Its TGI is over 100 µM.

Question: And the TGI [13]?
Answer: The TGI was over 100 µM.

Question: And the TGI [14]?
Answer: Its TGI is over 100 µM.

Question: What about the TGI [15] of the same compound?
Answer: Its TGI is over 100 µM.

Question: What about the TGI [16] of the same compound?
Answer: Its TGI is over 100 µM.

Question: And the TGI [17]?
Answer: Its TGI is over 100 µM.

Question: What about the TGI [18] of the same compound?
Answer: Its TGI is over 100 µM.

Question: What about the TGI [19] of the same compound?
Answer: The TGI was over 100 µM.

Question: What about the TGI [20] of the same compound?
Answer: Its TGI is over 100 µM.

Question: And the TGI [21]?
Answer: The TGI was over 100 µM.

Question: What about the TGI [22] of the same compound?
Answer: Its TGI is over 100 µM.

Question: What about the TGI [23] of the same compound?
Answer: Its TGI is over 100 µM.

Question: What about the TGI [24] of the same compound?
Answer: Its TGI is over 100 µM.

Question: What about the TGI [25] of the same compound?
Answer: Its TGI is over 100 µM.

Question: And the TGI [26]?
Answer: Its TGI is over 100 µM.

Question: And the TGI [27]?
Answer: The TGI was over 100 µM.

Question: What about the TGI [28] of the same compound?
Answer: Its TGI is over 100 µM.

Question: What about the TGI [29] of the same compound?
Answer: Its TGI is over 100 µM.

Question: What about the TGI [30] of the same compound?
Answer: Its TGI is over 100 µM.

Question: And the TGI [31]?
Answer: The TGI was over 100 µM.

Question: And the TGI [32]?
Answer: The TGI was over 100 µM.

Question: What about the TGI [33] of the same compound?
Answer: The TGI was over 100 µM.

Question: What about the TGI [34] of the same compound?
Answer: Its TGI is over 100 µM.

Question: What about the TGI [35] of the same compound?
Answer: Its TGI is over 100 µM.

Question: And the TGI [36]?
Answer: The TGI was over 100 µM.

Question: And the TGI [37]?
Answer: Its TGI is over 100 µM.

Question: What about the TGI [38] of the same compound?
Answer: The TGI was over 100 µM.

Question: What about the TGI [39] of the same compound?
Answer: Its TGI is over 100 µM.

Question: And the TGI [40]?
Answer: Its TGI is over 100 µM.

Question: What about the TGI [41] of the same compound?
Answer: Its TGI is over 100 µM.

Question: And the TGI [42]?
Answer: Its TGI is over 100 µM.

Question: What about the TGI [43] of the same compound?
Answer: The TGI was over 100 µM.

Question: And the TGI [44]?
Answer: The TGI was over 100 µM.

Question: And the TGI [45]?
Answer: Its TGI is over 100 µM.

Question: And the TGI [46]?
Answer: The TGI was over 100 µM.

Question: And the TGI [47]?
Answer: The TGI was over 100 µM.

Question: What about the TGI [48] of the same compound?
Answer: The TGI was over 100 µM.

Question: And the TGI [49]?
Answer: The TGI was over 100 µM.

Question: What about the TGI [50] of the same compound?
Answer: The TGI was over 100 µM.

Question: What about the TGI [51] of the same compound?
Answer: The TGI was over 100 µM.

Question: And the TGI [52]?
Answer: Its TGI is over 100 µM.

Question: What about the TGI [53] of the same compound?
Answer: Its TGI is over 100 µM.
